# “Also recorded” adds a separate entry of the source.
# What was measured:
# [1] = test system: Glucose dehydrogenase Mut. 2; test: Enzymatic activity of glucose dehydrogenase mutant 2 in solution after storage; assay type: biochemical; settings: for stabilizing effect in solution: 1-4% (w/v) stabilizer in solution, storage at 4, 35 or 45° C.; for Enzymatic Activity: in solution
# Description: Aliquots of a solution including a glucose dehydrogenase mutant 2 as disclosed in WO Patent Application Publication No. 2011/020856 was combined with different amounts of ectoine or hydroxyectoine as indicated below in Table 4.
# The aliquots were stored under different storage conditions (8 days, 4° C.; 8 days 35° C., 4 days 4° C. followed by 4 days 45° C.), and the enzymatic activity was determined after the storage.
# [2] = test system: glucose dehydrogenase and diaphorase; test: Blood glucose measurement with stored test elements as indicator for enzymatic activity; assay type: biochemical, B. subtilis; settings: 1 g/100 g composition; stored 63 days at 4, 24, 35 and 45° C.; normalized to 4° C.
# Description: Test elements were stored in plastic vials in the presence of a drying agent for 63 days at 4° C. (KS), 24° C. (RT), 35° C. (DT) and 45° C. (HT). Test elements were used to determine blood glucose levels in a plurality of venous blood samples. The samples were measured with a reference method (Hitachi) in parallel. Results were normalized with respect to the KS stored test elements.
# [3] = target: Gluc-DOR (a PQQ-dependent GDH) (Acinetobacter calcoaceticus, UniProt P13650); test: Enzymatic activity in test elements including Gluc-DOR; assay type: biochemical; settings: dry test element; after 3 weeks at 45° C.
# Gluc-DOR (a PQQ-dependent GDH), sequence (P13650 25-478): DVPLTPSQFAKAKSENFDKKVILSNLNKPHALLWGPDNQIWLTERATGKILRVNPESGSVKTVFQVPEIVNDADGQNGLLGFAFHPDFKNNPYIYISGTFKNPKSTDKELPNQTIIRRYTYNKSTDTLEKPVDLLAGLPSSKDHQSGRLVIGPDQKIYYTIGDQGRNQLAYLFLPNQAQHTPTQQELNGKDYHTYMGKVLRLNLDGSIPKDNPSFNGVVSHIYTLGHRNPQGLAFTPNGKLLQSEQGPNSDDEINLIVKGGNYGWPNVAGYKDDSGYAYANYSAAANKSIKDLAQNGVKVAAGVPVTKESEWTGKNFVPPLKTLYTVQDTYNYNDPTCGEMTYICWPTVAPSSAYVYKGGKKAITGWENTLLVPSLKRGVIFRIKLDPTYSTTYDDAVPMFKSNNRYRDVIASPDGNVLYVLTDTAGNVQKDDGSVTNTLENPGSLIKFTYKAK
# Description: (§1) A test element with Gluc-DOR and a mutant thereof (Gluc-DOR 31) was generated as described above in Example 1. The test element was analyzed as described above in Example 2. The determination of the enzymatic activity was carried out using nitrosoaniline as described in EP Patent No. 0 620 283.
# [4] = test system: Gluc-DOR 31 mutant; test: Enzymatic activity in test elements including Gluc-DOR 31 mutant; assay type: biochemical; settings: dry test element; after 3 weeks at 45° C.
# Description: as §1
# [5] = target: glucose oxidase (Aspergillus niger, UniProt P13006); settings: test elements for electrochemically determining glucose; WO 2007/097653, Loose (2006); cited from earlier work
# glucose oxidase, sequence (P13006 17-605, species assumed): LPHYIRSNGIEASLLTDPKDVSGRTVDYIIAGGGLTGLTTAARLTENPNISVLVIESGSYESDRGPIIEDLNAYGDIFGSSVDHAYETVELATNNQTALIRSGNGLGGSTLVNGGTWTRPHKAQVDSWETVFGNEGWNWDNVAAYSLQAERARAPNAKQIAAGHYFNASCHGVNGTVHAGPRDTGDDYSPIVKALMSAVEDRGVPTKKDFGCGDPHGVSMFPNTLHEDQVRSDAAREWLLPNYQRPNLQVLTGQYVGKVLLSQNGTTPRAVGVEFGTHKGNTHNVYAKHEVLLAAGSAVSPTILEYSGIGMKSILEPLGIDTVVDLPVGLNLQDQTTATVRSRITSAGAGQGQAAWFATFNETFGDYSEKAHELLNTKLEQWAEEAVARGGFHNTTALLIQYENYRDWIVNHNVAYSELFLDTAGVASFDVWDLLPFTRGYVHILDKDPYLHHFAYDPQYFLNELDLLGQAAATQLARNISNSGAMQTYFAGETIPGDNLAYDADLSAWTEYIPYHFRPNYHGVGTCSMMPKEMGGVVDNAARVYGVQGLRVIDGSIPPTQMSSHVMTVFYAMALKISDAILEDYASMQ
# [6] = target: GDH from B. subtilis (Bacillus subtilis, UniProt P12310); test: Enzymatic activity in eluted test elements after dry storage (GDH); assay type: biochemical; settings: concentrations larger than 0.3 g/100 g coating composition; test elements stored dry 6 weeks at 45° C.
# GDH from B. subtilis, sequence (P12310 whole entry): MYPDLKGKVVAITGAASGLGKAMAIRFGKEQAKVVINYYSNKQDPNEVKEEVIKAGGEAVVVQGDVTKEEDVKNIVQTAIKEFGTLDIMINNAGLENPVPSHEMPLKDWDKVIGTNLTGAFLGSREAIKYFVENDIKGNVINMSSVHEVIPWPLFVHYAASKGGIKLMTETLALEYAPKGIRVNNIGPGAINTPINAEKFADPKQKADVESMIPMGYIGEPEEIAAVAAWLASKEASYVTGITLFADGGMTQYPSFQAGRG
# Description: (§2) Four different reaction films for determining glucose levels were generated and coated on a foil essentially as described in EP Patent No. 0 821 234. The formulation of the first coat/film layer composition is shown below in Table 1.
# (§3) The pH was adjusted to 6.8, and the composition was coated as a first film (about 120 μm) on a polycarbonate foil (125 μm). The coated composition was subsequently dried at 50° C.
# (§4) The pH was adjusted to 6.8, and the composition was coated as a second film (about 25 μm) onto the first film coated on the foil. The coated composition was subsequently dried at 50° C. Test strips for glucose determination were generated as described in EP Patent No. 0 821 234.
# (§5) Test elements were stored in plastic vials in the presence of a drying agent for 6 weeks at 45° C. In a subsequent step, the test field of a test element was eluted by ultra-sonication using elution buffer. Enzymatic activity was determined in the supernatant.
# [7] = test system: diaphorase from B. subtilis; test: Enzymatic activity in eluted test elements after dry storage (diaphorase); assay type: biochemical; settings: test elements stored dry 6 weeks at 45° C.
# Description: as §2, §3, §4, §5
# [8] = test system: glucose dehydrogenase and diaphorase; test: Enzymatic activity in test elements with different buffers; assay type: biochemical, B. subtilis; settings: 2 g ectoine per 100 g first coating film; phosphate-buffer pH 6.8 or HEPES pH 7.1; 45 days, 45° C. to 4° C.
# Text: Test elements were stored and treated essentially as described in Example 3. Different buffers, namely a phosphate-buffer pH 6.8, without stabilizer, a phosphate-buffer pH 6.8, 2 g ectoine per 100 g first coating film, a HEPES buffer pH 7.1, without stabilizer, and a HEPES buffer pH 7.1, 2 g ectoine per 100 g first coating film, were used in the coating compositions as indicated in FIG. 4.
# [9] = test system: lactate dehydrogenase; settings: in solution; Andersson et al. (2000); cited from earlier work
# [10] = stabilizer about 1%, 4 days at 4° C., 4 days at 45° C.
# [11] = stabilizer about 1%, 8 days at 4° C.
# [12] = stabilizer about 1%, 8 days at 35° C.
# [13] = stabilizer about 2%, 4 days at 4° C., 4 days at 45° C.
# [14] = stabilizer about 2%, 8 days at 4° C.
# [15] = stabilizer about 2%, 8 days at 35° C.
# [16] = stabilizer about 4%, 4 days at 4° C., 4 days at 45° C.
# [17] = stabilizer about 4%, 8 days at 4° C.
# [18] = stabilizer about 4%, 8 days at 35° C.
smiles,measurement,setting,value
"CC1=NCC[C@@H](C(=O)O)N1 [ectoine, (S)-2-methyl-3,4,5,6-tetrahydropyrimidine-4-carboxylic acid]",stabilizing effect in solution,[1],No stabilizing effect; also recorded: not observed
same,Enzymatic Activity,[1]; [10],60 kU/g
same,Enzymatic Activity,[1]; [11],222 kU/g
same,Enzymatic Activity,[1]; [12],144 kU/g
same,Enzymatic Activity,[1]; [13],59 kU/g
same,Enzymatic Activity,[1]; [14],222 kU/g
same,Enzymatic Activity,[1]; [15],149 kU/g
same,Enzymatic Activity,[1]; [16],57 kU/g
same,Enzymatic Activity,[1]; [17],207 kU/g
same,Enzymatic Activity,[1]; [18],137 kU/g
same,preservation of enzymatic activities (measured glucose level),[2],act as stabilizers
same,stabilizing effect on Gluc-DOR,[3],stabilizing effect
same,stabilizing effect on Gluc-DOR 31 mutant,[4],stabilizing effect
same,stabilization of glucose oxidase,[5],Stabilization
same,stabilizing effect (activity versus test elements without stabilizer),[6],more than 10%
same,stabilization of diaphorase,[7],stabilized
same,stabilizing activity with different buffers,[8],observed independent of the buffer system
CC1=NC[C@H](O)[C@@H](C(=O)O)N1 [hydroxyectoine],prevention of protein aggregation,[9],incapable of preventing protein aggregation
same,stabilizing effect in solution,[1],No stabilizing effect
same,Enzymatic Activity,[1]; [10],52 kU/g
same,Enzymatic Activity,[1]; [11],208 kU/g
same,Enzymatic Activity,[1]; [12],122 kU/g
same,Enzymatic Activity,[1]; [13],60 kU/g
same,Enzymatic Activity,[1]; [14],221 kU/g
same,Enzymatic Activity,[1]; [15],141 kU/g
same,Enzymatic Activity,[1]; [16],56 kU/g
same,Enzymatic Activity,[1]; [17],207 kU/g
same,Enzymatic Activity,[1]; [18],131 kU/g
same,preservation of enzymatic activities (measured glucose level),[2],act as stabilizers
same,stabilization of glucose oxidase,[5],Stabilization
same,stabilizing effect (activity versus test elements without stabilizer),[6],same effect
same,stabilization of diaphorase,[7],stabilized

# Source: patent publication US20140363835A1, “COMPATIBLE SOLUTE ECTOINE AS WELL AS DERIVATIVES THEREOF FOR ENZYME STABILIZATION” (Roche Diagnostics Operations, Inc., priority 2012, published 2014)
